Measured values reported in ChEMBL document CHEMBL1156511, “Suppressor mutations in the transmembrane segments of P-glycoprotein promote maturation of processing mutants and disrupt a subset of drug-binding sites” (J Biol Chem, 2007).
Each block holds one compound with its values, some of them ahead of it. Activity calls are given as the source filed them. No cut-off for these calls is given here.

Assays:
Type in all cases: cell-based
HEK293 [1] = experiment: Inhibition of cross-linking of human Pgp TM1 L65R/TM6 L339C/TM7 F728 mutant expressed in HEK293 cells assessed as drug level causing 50% inhibition of cross linking by immunoblot
HEK293 [2] = experiment: Inhibition of cross-linking of human Pgp TM6 L339C/TM7 F728C mutant expressed in HEK293 cells assessed as drug level causing 50% inhibition of cross linking by immunoblot
[3] = biological target: ATP-dependent translocase ABCB1 (Homo sapiens, UniProt P08183, F728C/L339C/T199R); experiment: Inhibition of cross-linking of human Pgp TM3 T199R/TM6 L339C/TM7 F728C mutant expressed in HEK293 cells assessed as drug level causing 50% inhibition of cross linking by immunoblot; conditions: read-out: Activity
[4] = biological target: ATP-dependent translocase ABCB1 (Homo sapiens, UniProt P08183, F343R/F728C/L339C); experiment: Inhibition of cross-linking of human Pgp TM6 F343R/TM6 L339C/TM7 F728C mutant expressed in HEK293 cells assessed as drug level causing 50% inhibition of cross linking by immunoblot; conditions: read-out: Activity
[5] = biological target: ATP-dependent translocase ABCB1 (Homo sapiens, UniProt P08183, F728C/I306R/L339C); experiment: Inhibition of cross-linking of human Pgp TM5 I306R/TM6 L339C/TM7 F728C mutant expressed in HEK293 cells assessed as drug level causing 50% inhibition of cross linking by immunoblot; conditions: read-out: Activity
[6] = biological target: ATP-dependent translocase ABCB1 (Homo sapiens, UniProt P08183, Q195C); experiment: Increase in ATPase activity of human histidine-tagged Pgp TM3 Q195C mutant expressed in HEK293 cells at 2 mM relative to control; conditions: hek293, 2000 µM
HEK293 [7] = experiment: Activation of ATPase activity of human Pgp TM7 Cys728 mutant expressed in HEK293 cells at 3 mM relative to control
[8] = biological target: ATP-dependent translocase ABCB1 (Homo sapiens, UniProt P08183, F201C); experiment: Increase in ATPase activity of human histidine-tagged Pgp TM3 F201C mutant expressed in HEK293 cells at 2 mM relative to control; conditions: hek293, 2000 µM
[9] = biological target: ATP-dependent translocase ABCB1 (Homo sapiens, UniProt P08183, M197C); experiment: Increase in ATPase activity of human histidine-tagged Pgp TM3 M197C mutant expressed in HEK293 cells at 2 mM relative to control; conditions: hek293, 2000 µM
[10] = biological target: ATP-dependent translocase ABCB1 (Homo sapiens, UniProt P08183, F194C); experiment: Increase in ATPase activity of human histidine-tagged Pgp TM3 F194C mutant expressed in HEK293 cells at 2 mM relative to control; conditions: hek293, 2000 µM
[11] = biological target: T1, ATP-dependent translocase ABCB1 (Homo sapiens, UniProt P08183, C137A/C431A/C717A/C956A/C1074A/C1125A/C1227A); experiment: Increase in ATPase activity of human histidine-tagged Pgp Cys-less mutant expressed in HEK293 cells at 2 mM relative to control; conditions: hek293, 2000 µM
[12] = biological target: ATP-dependent translocase ABCB1 (Homo sapiens, UniProt P08183, F193C); experiment: Increase in ATPase activity of human histidine-tagged Pgp TM3 F193C mutant expressed in HEK293 cells at 2 mM relative to control; conditions: hek293, 2000 µM
[13] = biological target: ATP-dependent translocase ABCB1 (Homo sapiens, UniProt P08183, I190C); experiment: Increase in ATPase activity of human histidine-tagged Pgp TM3 I190C mutant expressed in HEK293 cells at 2 mM relative to control; conditions: hek293, 2000 µM
[14] = biological target: T2, ATP-dependent translocase ABCB1 (Homo sapiens, UniProt P08183, T199C); experiment: Activation of ATPase activity of human histidine-tagged Pgp TM3 T199C mutant expressed in HEK293 cells assessed as drug level causing half-maximal activation; conditions: read-out: Activity
[15] = biological target: T2, ATP-dependent translocase ABCB1; experiment: Activation of ATPase activity of human histidine-tagged Pgp TM3 T199C mutant expressed in HEK293 cells assessed as drug level causing maximal activation
[16] = biological target: ATP-dependent translocase ABCB1 (Homo sapiens, UniProt P08183, G191C); experiment: Increase in ATPase activity of human histidine-tagged Pgp TM3 G191C mutant expressed in HEK293 cells at 2 mM relative to control; conditions: hek293, 2000 µM
[17] = biological target: ATP-dependent translocase ABCB1 (Homo sapiens, UniProt P08183, G207C); experiment: Increase in ATPase activity of human histidine-tagged Pgp TM3 G207C mutant expressed in HEK293 cells at 2 mM relative to control; conditions: hek293, 2000 µM
[18] = biological target: ATP-dependent translocase ABCB1 (Homo sapiens, UniProt P08183, M192C); experiment: Increase in ATPase activity of human histidine-tagged Pgp TM3 M192C mutant expressed in HEK293 cells at 2 mM relative to control; conditions: hek293, 2000 µM
[19] = biological target: ATP-dependent translocase ABCB1 (Homo sapiens, UniProt P08183, I205C); experiment: Increase in ATPase activity of human histidine-tagged Pgp TM3 I205C mutant expressed in HEK293 cells at 2 mM relative to control; conditions: hek293, 2000 µM
[20] = biological target: ATP-dependent translocase ABCB1 (Homo sapiens, UniProt P08183, F204C); experiment: Increase in ATPase activity of human histidine-tagged Pgp TM3 F204C mutant expressed in HEK293 cells at 2 mM relative to control; conditions: hek293, 2000 µM
[21] = biological target: ATP-dependent translocase ABCB1 (Homo sapiens, UniProt P08183, A198C); experiment: Increase in ATPase activity of human histidine-tagged Pgp TM3 A198C mutant expressed in HEK293 cells at 2 mM relative to control; conditions: hek293, 2000 µM
[22] = biological target: ATP-dependent translocase ABCB1 (Homo sapiens, UniProt P08183, F200C); experiment: Increase in ATPase activity of human histidine-tagged Pgp TM3 F200C mutant expressed in HEK293 cells at 2 mM relative to control; conditions: hek293, 2000 µM
[23] = biological target: ATP-dependent translocase ABCB1 (Homo sapiens, UniProt P08183, T202C); experiment: Increase in ATPase activity of human histidine-tagged Pgp TM3 T202C mutant expressed in HEK293 cells at 2 mM relative to control; conditions: hek293, 2000 µM
[24] = biological target: ATP-dependent translocase ABCB1 (Homo sapiens, UniProt P08183, T209C); experiment: Increase in ATPase activity of human histidine-tagged Pgp TM3 T209C mutant expressed in HEK293 cells at 2 mM relative to control; conditions: hek293, 2000 µM
[25] = biological target: ATP-dependent translocase ABCB1 (Homo sapiens, UniProt P08183, F208C); experiment: Increase in ATPase activity of human histidine-tagged Pgp TM3 F208C mutant expressed in HEK293 cells at 2 mM relative to control; conditions: hek293, 2000 µM
[26] = biological target: ATP-dependent translocase ABCB1 (Homo sapiens, UniProt P08183, G203C); experiment: Increase in ATPase activity of human histidine-tagged Pgp TM3 G203C mutant expressed in HEK293 cells at 2 mM relative to control; conditions: hek293, 2000 µM
[27] = biological target: T1, ATP-dependent translocase ABCB1; experiment: Activation of ATPase activity of human histidine-tagged Cys-less Pgp mutant expressed in HEK293 cells assessed as half maximal stimulation at 110 uM; conditions: hek293, 110 µM
[28] = biological target: ATP-dependent translocase ABCB1 (Homo sapiens, UniProt P08183, S196C); experiment: Increase in ATPase activity of human histidine-tagged Pgp TM3 S196C mutant expressed in HEK293 cells at 2 mM relative to control; conditions: hek293, 2000 µM
[29] = biological target: T2, ATP-dependent translocase ABCB1; experiment: Increase in ATPase activity of human histidine-tagged Pgp TM3 mutant T199C expressed in HEK293 cells at 2 mM relative to control; conditions: hek293, 2000 µM
[30] = biological target: ATP-dependent translocase ABCB1 (Homo sapiens, UniProt P08183, V206C); experiment: Increase in ATPase activity of human histidine-tagged Pgp TM3 V206C mutant expressed in HEK293 cells at 2 mM relative to control; conditions: hek293, 2000 µM

T2 sequence (P08183 whole entry T199C): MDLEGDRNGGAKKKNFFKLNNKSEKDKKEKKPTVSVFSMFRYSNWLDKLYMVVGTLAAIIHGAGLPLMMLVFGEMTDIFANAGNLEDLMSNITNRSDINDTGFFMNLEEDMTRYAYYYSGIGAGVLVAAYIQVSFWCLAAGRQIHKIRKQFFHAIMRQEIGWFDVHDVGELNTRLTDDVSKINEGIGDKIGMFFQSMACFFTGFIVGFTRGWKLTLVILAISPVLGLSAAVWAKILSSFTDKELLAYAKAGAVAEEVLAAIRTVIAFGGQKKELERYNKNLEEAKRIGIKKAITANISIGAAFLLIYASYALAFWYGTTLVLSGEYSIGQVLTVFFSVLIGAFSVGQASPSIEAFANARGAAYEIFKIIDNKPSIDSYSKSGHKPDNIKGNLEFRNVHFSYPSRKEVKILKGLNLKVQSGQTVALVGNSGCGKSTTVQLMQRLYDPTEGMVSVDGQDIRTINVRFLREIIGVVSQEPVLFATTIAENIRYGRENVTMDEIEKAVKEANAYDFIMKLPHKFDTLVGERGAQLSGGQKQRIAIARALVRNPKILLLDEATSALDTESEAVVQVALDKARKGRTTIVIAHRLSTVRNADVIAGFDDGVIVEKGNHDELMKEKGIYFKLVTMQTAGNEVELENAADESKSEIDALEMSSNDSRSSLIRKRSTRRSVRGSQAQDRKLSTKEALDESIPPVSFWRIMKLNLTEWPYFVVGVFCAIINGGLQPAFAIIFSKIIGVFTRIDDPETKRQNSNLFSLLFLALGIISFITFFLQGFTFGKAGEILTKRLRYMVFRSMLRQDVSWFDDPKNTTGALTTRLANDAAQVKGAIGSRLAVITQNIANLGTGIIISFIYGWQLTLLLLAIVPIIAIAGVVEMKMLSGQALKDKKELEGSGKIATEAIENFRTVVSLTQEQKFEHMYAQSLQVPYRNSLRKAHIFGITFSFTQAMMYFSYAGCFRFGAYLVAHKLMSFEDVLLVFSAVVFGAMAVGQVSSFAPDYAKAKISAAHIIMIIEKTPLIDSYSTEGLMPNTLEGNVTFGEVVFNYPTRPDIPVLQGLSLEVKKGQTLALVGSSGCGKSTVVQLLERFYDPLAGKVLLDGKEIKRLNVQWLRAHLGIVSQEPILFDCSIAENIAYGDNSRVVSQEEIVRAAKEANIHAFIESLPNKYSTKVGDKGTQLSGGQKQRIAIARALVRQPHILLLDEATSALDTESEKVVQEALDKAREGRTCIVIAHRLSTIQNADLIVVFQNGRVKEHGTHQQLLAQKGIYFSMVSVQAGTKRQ
T1 sequence (P08183 whole entry C137A/C431A/C717A/C956A/C1074A/C1125A/C1227A): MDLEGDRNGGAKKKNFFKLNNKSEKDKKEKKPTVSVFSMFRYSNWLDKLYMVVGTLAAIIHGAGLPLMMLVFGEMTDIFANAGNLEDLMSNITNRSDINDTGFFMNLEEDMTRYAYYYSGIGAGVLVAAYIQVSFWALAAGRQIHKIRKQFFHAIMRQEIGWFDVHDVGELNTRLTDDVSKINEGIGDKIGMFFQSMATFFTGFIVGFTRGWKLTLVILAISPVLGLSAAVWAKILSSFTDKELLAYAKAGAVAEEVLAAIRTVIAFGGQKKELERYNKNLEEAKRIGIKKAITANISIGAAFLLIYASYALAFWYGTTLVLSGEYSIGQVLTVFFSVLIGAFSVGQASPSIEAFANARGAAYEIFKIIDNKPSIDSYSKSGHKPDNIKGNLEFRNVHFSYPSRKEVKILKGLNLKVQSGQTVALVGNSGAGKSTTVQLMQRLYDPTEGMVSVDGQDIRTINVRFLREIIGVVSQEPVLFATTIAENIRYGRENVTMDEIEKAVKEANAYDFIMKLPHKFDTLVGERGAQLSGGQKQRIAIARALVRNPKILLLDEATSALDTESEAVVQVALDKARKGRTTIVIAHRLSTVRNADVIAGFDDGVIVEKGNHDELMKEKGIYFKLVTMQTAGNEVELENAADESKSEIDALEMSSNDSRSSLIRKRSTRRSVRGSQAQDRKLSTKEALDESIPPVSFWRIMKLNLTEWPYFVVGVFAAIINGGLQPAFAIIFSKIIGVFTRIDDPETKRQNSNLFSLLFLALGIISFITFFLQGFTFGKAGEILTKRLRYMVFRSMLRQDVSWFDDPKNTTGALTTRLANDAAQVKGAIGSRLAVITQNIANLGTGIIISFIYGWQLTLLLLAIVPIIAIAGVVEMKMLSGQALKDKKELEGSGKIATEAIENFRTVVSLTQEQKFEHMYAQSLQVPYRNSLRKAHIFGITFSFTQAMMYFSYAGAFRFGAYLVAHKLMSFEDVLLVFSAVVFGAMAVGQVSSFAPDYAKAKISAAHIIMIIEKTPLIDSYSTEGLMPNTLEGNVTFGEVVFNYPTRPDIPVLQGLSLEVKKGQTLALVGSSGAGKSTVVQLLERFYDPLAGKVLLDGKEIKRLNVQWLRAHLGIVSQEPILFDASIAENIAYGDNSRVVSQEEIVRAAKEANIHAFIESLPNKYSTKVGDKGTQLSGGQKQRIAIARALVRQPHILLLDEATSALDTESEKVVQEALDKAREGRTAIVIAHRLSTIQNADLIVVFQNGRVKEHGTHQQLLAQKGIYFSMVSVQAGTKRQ
Sequence of ATP-dependent translocase ABCB1 (Homo sapiens, UniProt P08183, Q195C) (P08183 whole entry Q195C): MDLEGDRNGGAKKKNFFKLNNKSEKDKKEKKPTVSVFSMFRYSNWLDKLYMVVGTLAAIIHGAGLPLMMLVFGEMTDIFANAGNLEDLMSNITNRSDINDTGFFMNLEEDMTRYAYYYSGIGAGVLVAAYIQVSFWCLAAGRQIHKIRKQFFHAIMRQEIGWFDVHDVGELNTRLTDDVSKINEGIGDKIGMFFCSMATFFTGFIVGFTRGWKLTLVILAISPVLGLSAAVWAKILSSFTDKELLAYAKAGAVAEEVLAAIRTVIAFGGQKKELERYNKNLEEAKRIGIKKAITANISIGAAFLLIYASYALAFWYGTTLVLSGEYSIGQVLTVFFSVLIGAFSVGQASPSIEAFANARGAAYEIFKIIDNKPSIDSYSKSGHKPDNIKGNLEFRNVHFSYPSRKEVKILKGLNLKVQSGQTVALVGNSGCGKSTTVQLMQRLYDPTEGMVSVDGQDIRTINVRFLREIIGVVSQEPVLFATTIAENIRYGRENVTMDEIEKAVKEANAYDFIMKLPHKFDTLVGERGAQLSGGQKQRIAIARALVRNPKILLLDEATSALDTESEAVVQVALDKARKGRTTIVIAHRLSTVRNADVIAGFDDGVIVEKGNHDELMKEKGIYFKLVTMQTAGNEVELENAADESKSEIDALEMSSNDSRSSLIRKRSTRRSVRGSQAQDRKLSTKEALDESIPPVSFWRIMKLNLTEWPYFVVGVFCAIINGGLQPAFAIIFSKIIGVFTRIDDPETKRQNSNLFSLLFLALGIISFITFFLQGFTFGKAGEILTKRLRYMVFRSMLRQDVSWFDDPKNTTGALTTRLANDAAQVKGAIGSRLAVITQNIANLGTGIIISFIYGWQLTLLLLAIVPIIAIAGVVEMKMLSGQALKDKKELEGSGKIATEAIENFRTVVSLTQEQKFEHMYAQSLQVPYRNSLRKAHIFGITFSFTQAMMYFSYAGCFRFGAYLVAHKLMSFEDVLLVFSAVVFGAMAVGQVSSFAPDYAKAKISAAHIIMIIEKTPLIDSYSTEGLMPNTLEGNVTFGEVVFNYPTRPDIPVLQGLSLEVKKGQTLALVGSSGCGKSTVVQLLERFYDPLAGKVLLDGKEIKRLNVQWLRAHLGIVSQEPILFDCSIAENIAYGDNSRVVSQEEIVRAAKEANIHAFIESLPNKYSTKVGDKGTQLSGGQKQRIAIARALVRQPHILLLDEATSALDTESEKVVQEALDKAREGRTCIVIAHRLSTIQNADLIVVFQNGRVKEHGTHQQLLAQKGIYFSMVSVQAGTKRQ
Sequence of ATP-dependent translocase ABCB1 (Homo sapiens, UniProt P08183, F204C) (P08183 whole entry F204C): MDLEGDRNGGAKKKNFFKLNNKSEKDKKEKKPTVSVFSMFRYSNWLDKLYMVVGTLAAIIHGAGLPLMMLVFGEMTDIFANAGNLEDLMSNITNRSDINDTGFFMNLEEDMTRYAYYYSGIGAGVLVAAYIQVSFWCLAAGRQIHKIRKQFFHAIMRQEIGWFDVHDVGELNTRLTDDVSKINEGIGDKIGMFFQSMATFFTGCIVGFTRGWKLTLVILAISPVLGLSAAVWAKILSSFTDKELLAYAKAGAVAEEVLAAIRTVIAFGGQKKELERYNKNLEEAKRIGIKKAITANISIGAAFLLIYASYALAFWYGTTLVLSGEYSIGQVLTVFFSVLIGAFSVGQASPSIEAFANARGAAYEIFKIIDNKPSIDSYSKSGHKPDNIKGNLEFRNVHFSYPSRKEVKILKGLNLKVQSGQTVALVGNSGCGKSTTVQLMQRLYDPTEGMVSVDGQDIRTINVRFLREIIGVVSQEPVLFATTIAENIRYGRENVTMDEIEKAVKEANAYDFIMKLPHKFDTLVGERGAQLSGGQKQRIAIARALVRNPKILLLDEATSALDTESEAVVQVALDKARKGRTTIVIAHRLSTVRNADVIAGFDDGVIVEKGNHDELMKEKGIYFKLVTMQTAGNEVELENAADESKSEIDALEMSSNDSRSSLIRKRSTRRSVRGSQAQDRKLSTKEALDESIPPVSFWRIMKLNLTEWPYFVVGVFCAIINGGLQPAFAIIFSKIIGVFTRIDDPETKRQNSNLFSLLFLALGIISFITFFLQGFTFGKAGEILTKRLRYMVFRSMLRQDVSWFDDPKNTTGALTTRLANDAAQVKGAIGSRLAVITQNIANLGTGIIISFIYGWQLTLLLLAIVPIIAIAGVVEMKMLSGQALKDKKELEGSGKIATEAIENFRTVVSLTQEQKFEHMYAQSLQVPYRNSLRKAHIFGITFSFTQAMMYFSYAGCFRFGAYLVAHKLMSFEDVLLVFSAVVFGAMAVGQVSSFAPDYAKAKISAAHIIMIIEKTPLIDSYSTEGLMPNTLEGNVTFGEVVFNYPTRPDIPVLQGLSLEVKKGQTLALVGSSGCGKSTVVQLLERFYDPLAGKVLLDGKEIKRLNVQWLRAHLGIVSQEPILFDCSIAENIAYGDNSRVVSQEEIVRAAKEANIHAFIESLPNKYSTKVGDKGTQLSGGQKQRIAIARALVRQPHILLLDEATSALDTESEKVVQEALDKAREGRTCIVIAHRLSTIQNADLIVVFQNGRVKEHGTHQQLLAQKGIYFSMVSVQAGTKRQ

SMILES: CC[C@]1(O)C[C@@H]2CN(CCc3c([nH]c4ccccc34)[C@@](C(=O)OC)(c3cc4c(cc3OC)N(C)[C@H]3[C@@](O)(C(=O)OC)[C@H](OC(C)=O)[C@]5(CC)C=CCN6CC[C@]43[C@@H]65)C2)C1
Activity (HEK293 [1]): 40 µM
Activity (HEK293 [2]): 0.7 µM

SMILES: CCN(CC)c1ccc2c(-c3ccccc3C(C)=O)c3ccc(=[N+](CC)CC)cc-3oc2c1
Activity (HEK293 [1]): 65 µM
Activity (HEK293 [2]): 88 µM

IC50 [3]: 77 µM
IC50 [4]: 320 µM
IC50 [5]: 96 µM
Activity [6]: 6.4
SMILES: CCN(CC)c1ccc2c(-c3ccccc3C(=O)O)c3ccc(=[N+](CC)CC)cc-3oc2c1

SMILES: COc1ccc(CC[N+](C)(CCCC(C#N)(c2ccc(OC)c(OC)c2)C(C)C)CCSS(C)(=O)=O)cc1OC (stereo not drawn)
Activity (HEK293 [7]): inactive

Activity [8]: < 1.5
Activity [9]: < 1.5
Activity [10]: < 1.5
Activity [11]: < 1.5
Activity [12]: < 1.5
Activity [13]: < 1.5
EC50 [14]: 880 µM
Activity [15]: 2 mM
Activity [16]: < 1.5
Activity [17]: < 1.5
Activity [18]: < 1.5
Activity [19]: < 1.5
Activity [20]: < 1.5
Activity [21]: < 1.5
Activity [22]: < 1.5
Activity [23]: < 1.5
Activity [24]: < 1.5
Activity [25]: < 1.5
Activity [26]: < 1.5
Activity [27]: 6.2
Activity [28]: < 1.5
Activity [6]: < 1.5
Activity [29]: < 6.7
Activity [30]: < 1.5
SMILES: CCN(CC)c1ccc2c(-c3ccc(S(=O)(=O)NCCSS(C)(=O)=O)cc3S(=O)(=O)O)c3ccc(=[N+](CC)CC)cc-3oc2c1.[Cl-]
